Experiments:
[1] = Displacement of [3H]DTG from sigma2 receptor in Sprague-Dawley rat liver membrane after 150 mins by liquid scintillation counting analysis; assay type: cell membranes
[2] = molecular target: Sigma non-opioid intracellular receptor 1 (Cavia porcellus, UniProt Q60492)
[3] = Binding affinity to sigma receptor (unknown origin); parameters: species or system Homo sapiens

Sequence of Sigma non-opioid intracellular receptor 1 (Q60492 whole entry): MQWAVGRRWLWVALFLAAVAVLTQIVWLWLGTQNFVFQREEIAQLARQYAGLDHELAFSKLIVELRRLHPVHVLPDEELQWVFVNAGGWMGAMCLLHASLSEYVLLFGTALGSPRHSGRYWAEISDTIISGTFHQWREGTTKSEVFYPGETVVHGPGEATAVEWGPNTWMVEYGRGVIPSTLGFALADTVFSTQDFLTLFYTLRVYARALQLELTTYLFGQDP

SMILES	Ki [1]	Ki [2]	Ki [3]
O=S(=O)(Cc1ccccc1)N1CCN(Cc2ccccc2)CC1	48.4 nM	11.2 nM	–
O=S(=O)(/C=C/c1ccccc1)N1CCN(Cc2ccccc2)CC1	8140 nM	201 nM	–
O=S(=O)(Cc1ccccc1)N1CCN(Cc2ccc(Br)cc2)CC1	288 nM	13.4 nM	–
c1ccc(CN2CCN(Cc3ccccc3)CC2)cc1	1270 nM	–	–
c1ccc(CCCN2CCC(Cc3ccccc3)CC2)cc1	3.3 nM	0.4 nM	–
OC[C@@H]1CN(CCc2ccccc2)CCN1Cc1ccccc1	177 nM	38 nM	–
Clc1ccc(/C=C/CN2CCN(Cc3ccccc3)CC2)cc1	–	–	0.3 nM
O=S(=O)(Cc1cccc(Cl)c1)N1CCN(Cc2ccccc2)CC1	134 nM	68.1 nM	–
O=S(=O)(Cc1cccc(Br)c1)N1CCN(Cc2ccccc2)CC1	148 nM	29.9 nM	–
O=S(=O)(Cc1cccc(I)c1)N1CCN(Cc2ccccc2)CC1	88.8 nM	2.7 nM	–
Cc1cccc(CS(=O)(=O)N2CCN(Cc3ccccc3)CC2)c1	89.4 nM	35.9 nM	–
O=S(=O)(Cc1ccccc1)N1CCN(Cc2cccc(F)c2)CC1	181 nM	68.7 nM	–
O=S(=O)(Cc1ccccc1)N1CCN(Cc2cccc(Cl)c2)CC1	174 nM	51.8 nM	–
O=S(=O)(Cc1ccccc1)N1CCN(Cc2cccc(I)c2)CC1	117 nM	1.8 nM	–
Cc1cccc(CN2CCN(S(=O)(=O)Cc3ccccc3)CC2)c1	151 nM	15 nM	–
COc1ccc(CN2CCN(S(=O)(=O)Cc3ccccc3)CC2)cc1	2130 nM	192 nM	–
O=S(=O)(Cc1ccccc1)N1CCC(Cc2ccccc2)CC1	38.9 nM	9.9 nM	–

SMILES	Ki [1]	Ki [2]	Ki [3]
O=S(=O)(Cc1cccc(Cl)c1)N1CCC(Cc2ccccc2)CC1	199 nM	40 nM	–
O=S(=O)(Cc1cccc(Br)c1)N1CCC(Cc2ccccc2)CC1	25.9 nM	1.6 nM	–
O=S(=O)(Cc1cccc(I)c1)N1CCC(Cc2ccccc2)CC1	91.8 nM	0.96 nM	–
Cc1cccc(CS(=O)(=O)N2CCC(Cc3ccccc3)CC2)c1	48.9 nM	4.7 nM	–
O=S(=O)(c1ccccc1)N1CCC(Cc2ccccc2)CC1	56.7 nM	24.3 nM	–
O=S(=O)(c1ccc(Cl)cc1)N1CCC(Cc2ccccc2)CC1	778 nM	551 nM	–
O=S(=O)(c1ccc(Cl)cc1)N1CCN(Cc2ccccc2)CC1	1550 nM	969 nM	–
O=S(=O)(CCc1ccccc1)N1CCC(Cc2ccccc2)CC1	187 nM	–	–
O=S(=O)(CCc1ccccc1)N1CCN(Cc2ccccc2)CC1	191 nM	78.4 nM	–
O=S(=O)(/C=C/c1ccccc1)N1CCC(Cc2ccccc2)CC1	1960 nM	138 nM	–
O=S(=O)(/C=C/c1ccc(Br)cc1)N1CCC(Cc2ccccc2)CC1	248 nM	843 nM	–
O=S(=O)(/C=C/c1ccc(Br)cc1)N1CCN(Cc2ccccc2)CC1	485 nM	1080 nM	–
O=S(=O)(c1ccccc1)N1CCN(Cc2ccccc2)CC1	87.1 nM	28.4 nM	–
c1ccc(CCCN2CCN(Cc3ccccc3)CC2)cc1	–	20 nM	–
CC(C)=CCN1CC[C@]2(C)c3cc(O)ccc3C[C@H]1[C@H]2C [(+)-PENTAZOCINE]	1870 nM	–	–
Cc1ccccc1NC(=N)Nc1ccccc1C [DITOLYLGUANIDINE]	58.4 nM	–	–
O=C(CCCN1CCC(O)(c2ccc(Cl)cc2)CC1)c1ccc(F)cc1 [HALOPERIDOL]	43.5 nM	–	–

Reference: ChEMBL document CHEMBL2390940, “Synthesis and receptor binding studies of novel 4,4-disubstituted arylalkyl/arylalkylsulfonyl piperazine and piperidine-based derivatives as a new class of σ1 ligands” (Eur J Med Chem, 2013)
